Experimental data published in publication PMC10783034, “Pharmacokinetic and pharmacodynamic evaluation of the atypical tetracyclines chelocardin and amidochelocardin in murine infection models” (Microbiology Spectrum, 2023).
Values after ≈ are worked out from the molar mass of the structure shown. Values joined by “and” are separate entries in the source; they are usually repeats but may differ in a detail not shown here. Identical values can stand only once. “Also recorded” adds a separate entry of the source. Like-named read-outs stand apart in the source and are kept apart here.

Columns and labels:
[1] = Histopathological analysis of kidneys and livers after high-dose IV administration; assay type: in vivo, mice; settings: 30 mg/kg IV; for histopathological examination of liver / kidney tissue discoloration: 24 hours after treatment; for overall acute toxicity assessment: high-dose groups
Protocol: The sustained high urine concentrations observed for CDCHD at 15 mg/kg IV raised the concern that accumulation might occur. We therefore performed histopathological analysis of livers and kidneys. A dose of 30 mg/kg of CHD and CDCHD was administered intravenously, and livers and kidneys were examined 24 hours after treatment to investigate signs of acute toxicity.
CHD and CDCHD were administered in single PK studies at the doses of 15 mg/kg and 30 mg/kg IV, at 15 mg/kg SC, and 15 mg/kg PO. Up to 25 µL of blood was collected from the lateral tail vein (n = 3 per time point) and time points t = 0.5, 1, 2, 4, and 8 hours. For 15 mg/kg IV- and PO-administered compounds, blood was also collected at time points t = 24 and 48 hours. For IV- and SC-administered compounds, blood was also collected at t = 0.25 hours. At t = 24 hours (15 mg/kg SC, 30 mg/kg IV) or 72 hours (15 mg/kg IV and PO), animals were euthanized to collect blood. At every blood collection, time point spontaneous urine was collected as well. Whole blood was collected into Eppendorf tubes coated with 0.5 M EDTA and immediately spun down at 15,870× g for 10 min at 4°C. Then, plasma was transferred into a new Eppendorf tube and stored at −80°C until analysis.
Approximately 3 µm thick sections of formalin-fixed, paraffin-embedded samples of liver and kidney were analyzed blinded, and randomized to the experimental groups by a trained veterinarian. […] Kidneys were analyzed for changes in the glomeruli (not found), tubular dilation (1 = mild or up to 20% of tubuli affected, 2 = moderate or 25-40% of tubuli affected, 3 = severe 50% or more), and inflammatory infiltrate in the pelvis (1 = mild, 2 = moderate, 3 = severe).

A. baumannii DSM-30008 = assay: MIC determination; assay type: cell-based; settings: MHB medium
Protocol: (§1) The assay was conducted as described previously ([54]) with the following modifications. The MIC was tested against the K. pneumoniae strain ATCC 43816 in an MHB (not cation-adjusted) medium. CHD and CDCHD were tested in concentrations ranging from 0.078 to 10 µg/mL. Moreover, the MIC was determined for the following strains: K. pneumoniae DSM-30104, E. faecium DSM-20477, S. aureus DSM-346, P. aeruginosa DSM-11128, A. baumannii DSM-30008, E. aerogenes DSM-30053, E. coli ATCC 25922, and E. coli C175-94. All strains were grown in MHB medium, except for E. faecium, which was grown in TSB. CHD, epi-CDH, and CDCHD were tested in concentrations ranging from 0.125 to 64 µg/mL as described previously ([19]).

E. aerogenes DSM-30053 = assay: MIC determination; assay type: cell-based; settings: MHB medium
Protocol: as §1

E. coli ATCC 25922 [2] = assay: MIC determination; assay type: cell-based; settings: MHB medium
Protocol: as §1

E. coli C175-94 = assay: MIC determination; assay type: cell-based; settings: MHB medium
Protocol: as §1

E. faecium DSM-20477 = assay: MIC determination; assay type: cell-based; settings: TSB medium
Protocol: as §1

K. pneumoniae DSM-30104 = assay: MIC determination; assay type: cell-based; settings: MHB medium
Protocol: as §1

P. aeruginosa DSM-11128 = assay: MIC determination; assay type: cell-based; settings: MHB medium
Protocol: as §1

S. aureus DSM-346 = assay: MIC determination; assay type: cell-based; settings: MHB medium
Protocol: as §1

E. coli ATCC 25922 [3] = system: E. coli ATCC 25922; set-up: method as in PMID 32962088; settings: cited from earlier work
K. pneumoniae strains = system: K. pneumoniae strains; set-up: method as in PMID 32962088; settings: selection of different K. pneumoniae strains; cited from earlier work
K. pneumoniae ATCC 43816 = system: K. pneumoniae ATCC 43816; set-up: method as in PMID 32962088; settings: cited from earlier work

Row | Compound | histopathological examination of liver [1] | kidney tissue discoloration [1] | overall acute toxicity assessment [1] | MIC (A. baumannii DSM-30008) | MIC (E. aerogenes DSM-30053) | MIC (E. coli ATCC 25922 [2]) | MIC (E. coli C175-94) | MIC (E. faecium DSM-20477) | MIC (K. pneumoniae DSM-30104) | MIC (P. aeruginosa DSM-11128) | MIC (S. aureus DSM-346) | MIC (E. coli ATCC 25922 [3]) | MIC (K. pneumoniae strains) | minimal bactericidal concentration (MBC) (K. pneumoniae ATCC 43816)
1 | CC(=O)C1=C(O)[C@H](N)[C@@H]2Cc3c(c(O)c4c(O)c(C)ccc4c3C)C(=O)[C@]2(O)C1=O [CHD, chelocardin] | sporadic extramedullary erythropoiesis and thrombopoiesis | yellow tissue discoloration | no immediate toxicity red flags | 16 µg/mL (≈ 38.9 µM) | 32 µg/mL (≈ 77.8 µM) | 2 µg/ml and ~ 2 µg/ml | 2 µg/mL (≈ 4.86 µM) | 4 µg/mL (≈ 9.72 µM) | 2 to 4 µg/mL | > 64 µg/mL | 4 µg/mL (≈ 9.72 µM) | 2 µg/mL (≈ 4.86 µM) | ~ 4 µg/mL | 16 µg/mL (≈ 38.9 µM)
2 | Cc1ccc2c(C)c3c(c(O)c2c1O)C(=O)C1(O)C(=O)C(C(N)=O)=C(O)C(N)C1C3 (stereo not shown) [CDCHD, 2-carboxamido-2-deacetyl-chelocardin] | sporadic extramedullary erythropoiesis and thrombopoiesis; also recorded: a moderate reduction of glycogen, moderate anisokaryosis, and a moderate amount of double-nucleated cells | yellow tissue discoloration | no immediate toxicity red flags | 8 µg/mL (≈ 19.4 µM) | 8 µg/mL (≈ 19.4 µM) | 2 µg/ml and ~ 2 µg/ml | 2 to 4 µg/mL | 2 µg/mL (≈ 4.85 µM) | 1 µg/mL (≈ 2.42 µM) | 16 µg/mL (≈ 38.8 µM) | 2 µg/mL (≈ 4.85 µM) | 2 µg/mL (≈ 4.85 µM) | ~ 4 µg/mL | 8 µg/mL (≈ 19.4 µM)
